The source of these data is patent publication US20210263015A1, “MEASUREMENT METHOD” (priority 2018, published 2021).

Holding throughout (type): cell-based
Assay [1] concerns Cerebral cortex neurons derived from human iPS cells. The assay can be described thus: Neural activity propagation in neural network of nerve cell device on MEA (4-AP). From the text:
FIG. 3 is a diagram showing the results of measuring by MEA (16 channels) the effect of 4-aminopyridines (4-AP) on the propagation speed of action potential in a neural network included in a nerve cell device. (A) is a raster plot diagram of the electrical signal measured by MEA after the addition of DMSO (upper figure) or 4-AP (lower figure). (B) is a diagram showing the results of measuring the time taken by the action potential in a neural network from the channel number 1 of the MEA to the channel number 16 (the channel at the diagonal of the MEA) after the addition of 4-AP (0.3, 1, and 3 μM) or DMSO and before the addition of the drug. The results are relative values in which the action potential arrival time in case of before the addition of the drug is taken as 100, and indicated by the average ±standard error (n=4). The decrease in the relative value of arrival time of action potential indicates an increase in the propagation speed of the action potential.
An oriented PS fiber sheet obtained by mounting a stainless steel circular frame produced in Example 1 was hydrophilized by plasma treatment using a desktop plasma treatment apparatus (STREX Inc.), and then coated with poly-D-lysine and laminin. […] The nerve action potential and the propagation direction of the neural activity were measured. […]

For assay [2], the system named is spinal motion neuron derived from human iPS cells.
Assay [3] deals with Nerve cells derived from human iPS cells (XCL-1 neuron). Description: Neural activity propagation in neural network of nerve cell device on MEA (picrotoxin), XCL-1 neurons. The settings on record: picrotoxin 0.1-10 μm; XCL-1 neurons seeded at 3×10^5 or 9×10^5 cells/cm^2; relative to vehicle (DMSO). The procedure: (§1) FIG. 4 is a diagram showing the results obtained by measuring the effect of picrotoxin by changing its concentration on the propagation speed of action potential in a neural network included in a nerve cell device having a different cell seeding density. As nerve cells, XCL-1 neurons (Xcell Science, US) were seeded at density of 3×10^5 cells/cm^2 (A) and 9×10^5 cells/cm^2 (B) or cerebral cortex neurons derived from human iPS cells (Axol Bioscience, UK) were seeded at density of 8x10^5 cells/cm^2 (C) and 24×10^5 cells/cm^2 (D) and cultured for 6 weeks. The concentrations of picrotoxin were 0.1, 0.3, 1, 3 and 10 μM. The results are relative values in which the propagation speed of action potential in case of the addition of vehicle (DMSO, a solvent in the drug) is taken as 100, and indicated by the average ±standard error (A, n=3; B, n=6; C, n=2; D, n=4).
(§2) An oriented PS fiber sheet obtained by mounting a stainless steel circular frame produced in Example 1 was hydrophilized by plasma treatment using a desktop plasma treatment apparatus (STREX Inc.), and then coated with poly-D-lysine and laminin. […] The nerve action potential was determined.

Assay [4] has as its system Cerebral cortex neurons derived from human iPS cells. The assay can be described thus: Neural activity propagation in neural network of nerve cell device on MEA (picrotoxin), cerebral cortex neurons. The settings on record: picrotoxin 0.1-10 μm; cerebral cortex neurons seeded at 8×10^5 or 24×10^5 cells/cm^2; relative to vehicle (DMSO). Here is the method: as §1, §2

On to `Nc1ccncc1` [4-AP, 4-aminopyridin], for which the “propagation speed of neural activity” value in assay [1] (4-AP 3 μM, channel 1 to channel 16 of MEA, DMSO 0.14 m/sec) was 0.39 m/sec. Besides, in assay [1] (4-AP 0.3, 1 and 3 μM, n=4), the “propagation speed of neural activity, concentration dependence (relative action potential arrival time)” value is recorded as “increase dependently with the concentration of 4-AP”.

Turning to `NC1=N[C@H](O)[C@H]2[C@H]3O[C@]4(O)O[C@@H]([C@@H](O)[C@@]2(N1)[C@@H]4O)[C@]3(O)CO` [TTX, tetrodotoxin], the “peak time of action potential” value in assay [2] is recorded as “delayed”.

With picrotoxin, the “propagation speed of action potential, concentration dependence” value in assay [3] and in assay [4] was “an increase in propagation speed of a concentration-dependent action potential was observed” each time.
